Experimental data reported in PubChem BioAssay (NCI).
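Method: 48-hour compound exposure of cells in 96-well plates, five concentrations, linear interpolation of endpoints. Here, GI50 denotes the concentration required for 50% inhibition of growth. The concentration for full growth arrest is given as TGI.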

Key:
Test in all cases: DTP human tumour cell line panel, 48 h
[1] = tested on: BT-549 breast
[2] = tested on: PC-3 prostate
[3] = tested on: RXF-631 renal
[4] = tested on: DLD-1 colon
[5] = tested on: DMS 114 small cell lung
[6] = tested on: LXFL 529 NSCLC
[7] = tested on: M19-MEL melanoma
[8] = tested on: KM20L2 colon
[9] = tested on: MDA-N

| SMILES | GI50 [1] | TGI [1] | GI50 [2] | TGI [2] | TGI [4] | TGI [5] | TGI [6] | TGI [7] | TGI [8] | other results |
| --- | --- | --- | --- | --- | --- | --- | --- | --- | --- | --- |
| CSC(=S)NCc1cn(C)c2ccccc12 | 20 µM | 54.2 µM | 33 µM | > 100 µM | – | – | – | – | – | – |
| Cn1cnnc1Sc1c([N+](=O)[O-])nc(-c2ccc([N+](=O)[O-])cc2)n1C | – | – | – | – | 29.3 µM | 32.4 µM | 26.8 µM | 32.3 µM | – | TGI [3]: 32.8 µM |
| C=C(CN1CCc2ccccc2C1)c1ccc(CCCC(=O)Nc2ccccc2N)cc1 | – | – | 10.5 µM | 30.3 µM | – | – | – | – | – | – |
| COc1cc(C=NCC(=O)CSC(c2ccccc2)c2ccccc2)ccc1O | 14 µM | 31.6 µM | 9.26 µM | 28.2 µM | – | – | – | – | – | – |
| CCCCn1c(-c2ccccc2)cs/c1=N\NC(=O)Cn1c(C)nc2ccccc21 | – | – | – | – | > 100 µM | – | > 100 µM | > 100 µM | > 100 µM | – |
| O=C(O)C12C=CC(C1)c1ccccc12 (stereo unspecified) | – | – | – | – | > 100 µM | > 100 µM | > 100 µM | > 100 µM | > 100 µM | – |
| C/C(=N/NC(N)=S)C(CN1CCOCC1)C(C1=C(O)c2ccccc2OC1)c1ccccc1 (stereo unspecified) | – | – | – | – | > 100 µM | – | > 100 µM | > 100 µM | > 100 µM | – |
| BrCc1ccc2ccc3ccc(CBr)nc3c2n1 | – | – | – | 5.75 µM | – | 15.4 µM | 3.19 µM | 14.1 µM | 29.3 µM | TGI [9]: 12.7 µM |
| N.N.N.N.O=S([O-])[O-].[Co+3].[N-]=[N+]=[N-] | – | – | – | – | > 100 µM | – | > 100 µM | – | > 100 µM | GI50 [8]: > 100 µM; GI50 [4]: > 100 µM; GI50 [6]: > 100 µM |
| Cc1cc(C)c(-c2c(O)c(Br)c(-c3c(C)cc(C)c(Br)c3C)c(O)c2Br)c(C)c1Br | 2.25 µM | 10.5 µM | 1.88 µM | 8.76 µM | – | – | – | – | – | – |
| O=C1C(=O)N(c2cc(Cl)ccc2Cl)C(=O)C(=O)C1c1nc2ccccc2s1 | – | – | – | – | > 100 µM | > 100 µM | > 100 µM | > 100 µM | > 100 µM | – |
| O=C(O)C(Cc1ccccc1)N1C(=O)/C(=C/C(Cl)=C/c2ccc([N+](=O)[O-])cc2)SC1=S (stereo unspecified) | – | – | 2.53 µM | 7.98 µM | – | – | – | – | – | – |
| O=C1c2ccccc2-c2c1c1ccccc1c(=O)n2CCNCCNCCNCCNCCn1c2c(c3ccccc3c1=O)C(=O)c1ccccc1-2 | 0.334 µM | 1.62 µM | – | – | – | – | – | – | – | – |
| CCOC(=O)NN1C(=O)C(=P(c2ccccc2)(c2ccccc2)c2ccccc2)C(C(=O)OC)=C1C | – | – | – | – | > 100 µM | > 100 µM | > 100 µM | > 100 µM | > 100 µM | – |
| CCNc1ccc2c(c1)C(=O)N(OS(C)(=O)=O)C2=O | – | > 100 µM | – | > 100 µM | – | – | – | – | – | TGI [9]: > 100 µM |
| O=C(O)CCN1C(=S)CSC1=S | – | > 100 µM | – | > 100 µM | – | – | – | – | – | TGI [9]: > 100 µM |
| CCOC(=O)c1sc(NC(=O)COc2ccc(/C=C3\CCc4cc(OC)ccc4C3=O)cc2)nc1C | 1.4 µM | 17.7 µM | 10.2 µM | > 57.3 µM | – | – | – | – | – | – |
| COc1cc(C2CC(c3ccc(Cl)cc3)=NN2C(C)=O)ccc1Oc1ccnc2cc(Cl)ccc12 (stereo unspecified) | 1.4 µM | > 100 µM | – | – | – | – | – | – | – | – |

| SMILES | GI50 [1] | TGI [1] | GI50 [2] | TGI [2] | TGI [4] | TGI [5] | TGI [6] | TGI [7] | TGI [8] | other results |
| --- | --- | --- | --- | --- | --- | --- | --- | --- | --- | --- |
| C/C(=N\NC(=S)N1CCCC1)c1ccccn1 | 0.018 µM | 14.9 µM | < 0.01 µM | 16.7 µM | – | – | – | – | – | – |
| O=C(Cc1nc2ccccc2s1)C(=O)Nc1cccc(C(F)(F)F)c1 | – | – | – | – | > 100 µM | > 100 µM | > 100 µM | > 100 µM | > 100 µM | – |
| CN(C)CCN=c1nc2c(c(N)n1-c1ccccc1)c(=S)n(-c1ccccc1)c(=S)n2-c1ccccc1 | 3.21 µM | 13.3 µM | 4.58 µM | 27.7 µM | – | – | – | – | – | – |
| C=C(c1ccccc1)c1cc2c(=O)[nH]ccc2n1C | – | – | – | – | > 100 µM | 50.1 µM | > 100 µM | > 100 µM | 59.7 µM | – |
| O=C(CC1(O)CCCCC1)OC1CCCC1 | – | > 100 µM | – | > 100 µM | – | – | – | – | – | TGI [9]: > 100 µM |
| COc1cccc(C=NC23CC4CC(CC(C4)C2)C3)c1 | – | – | – | – | – | – | – | > 100 µM | > 100 µM | – |
| C[C@]12CC[C@H](OC(=O)Nc3ccccc3)CC1=CC[C@@H]1C2CC[C@]2(C)/C(=N/OC(=O)Nc3ccccc3)CCC12 (stereo partly specified) | – | – | – | – | – | > 100 µM | 2.52 µM | > 100 µM | > 100 µM | TGI [3]: > 100 µM |
| COc1ccc(OCC(=O)O)c2c1CCC(C)C2=O (stereo unspecified) | – | – | – | – | > 100 µM | > 100 µM | – | > 100 µM | > 100 µM | TGI [3]: > 100 µM |
| CC(C)(C)OC(=O)NCCCCCCCCCCCCn1c2c(c3ccccc3c1=O)C(=O)c1ccccc1-2 | 38.5 µM | > 100 µM | > 100 µM | > 100 µM | – | – | – | – | – | – |
| COc1ccc(C(=O)Cn2c(C(=O)c3ccc(Cl)cc3)nc(-c3ccccc3)c2-c2ccccc2)cc1 | > 100 µM | > 100 µM | > 100 µM | > 100 µM | – | – | – | – | – | – |
| COC1CCC(OC)C(c2nc3sccn3c2/C=N/N=C(N)N)C1 (stereo unspecified) | 18.4 µM | 42.4 µM | 25 µM | > 65.4 µM | – | – | – | – | – | – |
| O=C1N=C2N=C(c3ccc(Cl)cc3)N(c3ccc(Cl)cc3)N2Sc2ccccc21 | – | – | – | – | > 100 µM | > 100 µM | > 100 µM | > 100 µM | > 100 µM | – |
| O=C(NCCCN1CCN(CCCNC(=O)Nc2cc(Cl)ccc2Cl)CC1)Nc1cc(Cl)ccc1Cl | – | – | – | – | > 100 µM | > 100 µM | > 100 µM | – | > 100 µM | – |
| C=C(CN1CCN(c2ccccn2)CC1)c1ccc(C(=O)Nc2ccccc2N)cc1 | 3.95 µM | 37.4 µM | 3.78 µM | > 50 µM | – | – | – | – | – | – |
| C/C(=C\c1ccccc1)C(=O)c1c(C)cc(C)cc1C | – | – | – | – | > 100 µM | > 100 µM | > 100 µM | > 100 µM | > 100 µM | – |
| Cc1nc(Nc2ccc(Cl)cc2)sc1C(=O)Nc1cccc2c(=O)[nH][nH]c(=O)c12 | – | – | – | – | 86.4 µM | 61.9 µM | 86.6 µM | 84.4 µM | 41.2 µM | – |
| Fc1ccc(-c2ncn(C3CCNCC3)c2-c2ccnc(Oc3ccc(Cl)cc3)n2)cc1 | 5.05 µM | 18.8 µM | 6.31 µM | > 15.9 µM | – | – | – | – | – | – |
| CC(NC1CCCC[C@@H]1O)c1ccccc1 (stereo partly specified) | – | – | – | – | > 100 µM | – | > 100 µM | > 100 µM | > 100 µM | – |
